Experimental data taken from patent publication US7781432B2 (Gruenenthal GmbH, priority 2004, dated 2010).

Test system: not given
Test: not given
Settings: not given

melting point | Compound
150 to 151 °C | O=[N+]([O-])c1ccc(CSc2ncnc3c2nc(NC2CCCC2)n3Cc2ccccc2)cc1 [Example 14, 9-benzyl-8-(cyclopentylamine)-6-(4-nitrobenzyl)-mercaptopurine]
66 to 68 °C | O=[N+]([O-])c1ccc(CSc2ncnc3c2nc(NC2CCCCC2)n3Cc2ccccc2)cc1 [Example 15, 9-benzyl-8-(cyclohexylamine)-6-(4-nitrobenzyl)-mercaptopurine]

Molecular target: T1, Nucleoside Transporter (Homo sapiens, UniProt Q99808)
T1 sequence (Q99808 1-456): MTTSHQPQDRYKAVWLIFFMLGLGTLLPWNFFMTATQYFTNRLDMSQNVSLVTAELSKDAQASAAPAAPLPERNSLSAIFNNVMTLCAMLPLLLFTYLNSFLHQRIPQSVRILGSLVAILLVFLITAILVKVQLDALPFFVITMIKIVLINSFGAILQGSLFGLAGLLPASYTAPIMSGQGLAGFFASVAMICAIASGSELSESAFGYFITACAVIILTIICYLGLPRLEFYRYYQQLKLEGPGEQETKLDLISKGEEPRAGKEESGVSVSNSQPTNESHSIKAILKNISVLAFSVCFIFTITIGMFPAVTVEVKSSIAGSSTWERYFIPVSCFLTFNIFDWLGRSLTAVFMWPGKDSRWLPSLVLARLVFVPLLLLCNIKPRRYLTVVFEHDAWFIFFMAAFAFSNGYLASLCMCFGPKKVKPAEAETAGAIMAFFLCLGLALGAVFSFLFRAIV
Test: not given
Settings: pH 7.4

Compound | Ki
6-benzyl-8-(cyclohexylamino)-thioinosine [Example 10] | 0.94 nM
6-benzyl-8-(n-butylamino)-thioinosine [Example 4] | 5.4 nM
6-benzyl-8-(n-pentylamino)-thioinosine [Example 5] | 2.3 nM
CCNc1nc2c(SCc3ccccc3)ncnc2n1[C@@H]1O[C@H](CO)[C@@H](O)[C@H]1O [Example 2, 6-benzyl-8-ethylamino-thioinosine] | 9.5 nM
CCCNc1nc2c(SCc3ccccc3)ncnc2n1[C@@H]1O[C@H](CO)[C@@H](O)[C@H]1O [Example 3, 6-benzyl-8-(n-propylamino)-thioinosine] | 5.3 nM
CCC(C)CNc1nc2c(SCc3ccccc3)ncnc2n1[C@@H]1O[C@H](CO)[C@@H](O)[C@H]1O (stereo partly shown) [Example 7, 6-benzyl-8-[(2-methyl-butyl)-amino]-thioinosine] | 3.6 nM
OC[C@H]1O[C@@H](n2c(NC3CC3)nc3c(SCc4ccccc4)ncnc32)[C@H](O)[C@@H]1O [Example 8, 6-benzyl-8-(cyclopropylamino)-thioinosine] | 3 nM
OC[C@H]1O[C@@H](n2c(NC3CCCC3)nc3c(SCc4ccccc4)ncnc32)[C@H](O)[C@@H]1O [Example 9, 6-benzyl-8-(cyclopentylamino)-thioinosine] | 0.64 nM
OC[C@H]1O[C@@H](n2c(N3CCCC3)nc3c(SCc4ccccc4)ncnc32)[C@H](O)[C@@H]1O [Example 11, 6-benzyl-8-pyrrolidino-thioinosine] | 410 nM
OC[C@H]1O[C@@H](n2c(N3CCCCC3)nc3c(SCc4ccccc4)ncnc32)[C@H](O)[C@@H]1O [Example 12, 6-benzyl-8-piperidino-thioinosine] | 744 nM
O=[N+]([O-])c1ccc(CSc2ncnc3c2nc(NC2CCCC2)n3Cc2ccccc2)cc1 [Example 14, 9-benzyl-8-(cyclopentylamine)-6-(4-nitrobenzyl)-mercaptopurine] | 29 nM

Results, then the compound that gave them:

Ki | Compound
1520 nM | 9-benzyl-6-(4-nitrobenzyl)-8-pyrrolidino-mercaptopurine [Example 16]
55 nM | O=[N+]([O-])c1ccc(CSc2ncnc3c2nc(NC2CCCCC2)n3Cc2ccccc2)cc1 [Example 15, 9-benzyl-8-(cyclohexylamine)-6-(4-nitrobenzyl)-mercaptopurine]

Molecular target: T1, Nucleoside Transporter
Test: biochemical
Settings: not given

Ki | Compound
122 nM | c1ccc(Cn2c(N3CCOCC3)nc3c(SCc4ccc5nonc5c4)ncnc32)cc1 [Example 19, 6-(benzo[c][1,2,5]oxadiazole-5-ylmethylsulfanyl)-9-benzyl-8-morpholin-4-yl-9H-purine]
1390 nM | c1ccc(CSc2ncnc3c2nc(N2CCOCC2)n3Cc2ccccc2)cc1 [Example 20, 9-benzyl-6-benzylsulfanyl-8-morpholin-4-yl-9H-purine]
514 nM | c1ccc(CSc2ncnc3c2nc(N2CCCC2)n3Cc2ccccc2)cc1 [Example 21, 9-benzyl-6-benzylsulfanyl-8-pyrrolidin-1-yl-9H-purine]

Molecular target: T1, Nucleoside Transporter
Test: radioligand binding assay with [3H]NBTI on human erythrocyte membranes
Settings: [[…] 1.5 nM, test concentration not printed (footnote c missing)

Compound | Binding Nucleoside Transporter (value printed as % in the Ki column)
OC[C@H]1O[C@@H](n2c(N3CCOCC3)nc3c(SCc4ccccc4)ncnc32)[C@H](O)[C@@H]1O [Example 13] | 33%^c
